Here are results for 3 molecules from publication PMC12785803, “Novel ACE-Inhibitory Peptides from Royal Jelly Proteins: Comprehensive Screening, Mechanistic Insights, and Endothelial Protection” (Foods, 2025).

Series [1] concerns EA.hy926 cells. In words: Wound healing assay (Ang II-induced migration). The series is classed as cell-based. The note with it: captopril 0.2 mg/mL, Ang II-induced. As to the method:
The effect of peptides on endothelial cell migration was evaluated using a wound healing assay. Briefly, EA.hy926 cells were seeded into 6-well plates and cultured at 37 °C in a humidified atmosphere containing 5% CO2. When the cells reached full confluence, they were treated with 1 μmol/L Ang II for 12 h to induce endothelial dysfunction. Subsequently, a straight scratch was created across the cell monolayer using a sterile 200 μL pipette tip. Detached cells were gently removed by rinsing with PBS, leaving a clear cell-free wound area. To minimize proliferation interference, cells were then incubated in high-glucose DMEM containing 1% FBS, supplemented with different concentrations of the peptides or captopril. Images of the same wound area were captured at 0 h, 6 h, and 24 h using a fluorescence microscope (Axio Observer, Zeiss, Jena, Germany), and the wound area was quantified using ImageJ software (version 1.54g).

For series [2], the system named is EA.hy926 cells. Nature of the series: NO level in Ang II-stimulated cells (Griess). In kind it is cell-based. As to conditions: captopril after Ang II; control 109.8, Ang II 58.95. As to the method:
(§1) To evaluate the effect of the peptide on endothelial function, NO and ET-1 levels were measured in this study. Briefly, EA.hy926 cells were seeded in 6-well plates at a density of 4 × 10^5 cells/well and allowed to adhere overnight. After removing the medium, cells were incubated with 1 μmol/L Ang II for 12 h to induce endothelial dysfunction. Subsequently, the peptide solutions at different concentrations (0.1, 0.2, and 0.4 mg/mL) or the captopril solutions were added, and the cells were incubated for an additional 24 h. For the blank control group, the cells received no treatment. After incubation, the culture supernatants were collected and centrifuged to remove debris. Both NO and ET-1 contents in the supernatants were quantified using commercial kits according to the manufacturer’s protocols. NO content was determined using the Griess reaction (OD = 550 nm), and ET-1 levels were measured via enzyme-linked immunosorbent assay (ELISA) (OD = 450 nm). Absorbance values were recorded at the corresponding wavelengths using a microplate reader (Spark 10M, Tecan, Männedorf, Switzerland).
A general note: Griess reagent forms a coloured azo dye with nitrite.

Series [3] has as its system EA.hy926 cells. In words: ET-1 level in Ang II-stimulated cells (ELISA). In kind it is cell-based. The note with it: captopril after Ang II; control 13.82, Ang II 15.65. How it is done:
as §1

Series [4] concerns EA.hy926 cells. In words: GSH-Px activity in H2O2-damaged cells. The series is classed as cell-based. The note with it: captopril; vs H2O2 group. As to the method: (§2) The activities of SOD and GSH-Px were assessed as follows. EA.hy926 cells were seeded in 6-well plates at 4 × 10^5 cells per well and cultured overnight. After attachment, the cells were serum-starved in high-glucose DMEM containing 1% FBS for 12 h, and then treated for 24 h with peptide solutions at the indicated concentrations or with captopril. […] After treatment, the cells were washed with ice-cold PBS, lysed on ice, and centrifuged to collect the supernatants. SOD and GSH-Px activities were measured spectrophotometrically at 550 nm and 412 nm, respectively, using a microplate reader. Enzyme activities were calculated, normalized to total protein content, and expressed as U/mg protein.

Series [5] relates to EA.hy926 cells. Nature of the series: SOD activity in H2O2-damaged cells. In kind it is cell-based. As to conditions: captopril; vs H2O2 group. How it is done:
as §2

Series [6] has as its system EA.hy926 cells. Nature of the series: MTT cytotoxicity assay. The note with it: EA.hy926, 24 h, 0.0625 to 1 mg/mL; ISO 10993-5 limit: viability above 70%. On the technique in general: Tetrazolium dyes change colour on reduction, which living cells bring about.
Description: Cell culture. EA.hy926 endothelial cells were cultured in high-glucose Dulbecco’s Modified Eagle Medium (DMEM) supplemented with 10% fetal bovine serum (FBS) and 1% penicillin–streptomycin. Cells were maintained in a humidified incubator at 37 °C with 5% CO2. When cell confluence reached approximately 70–80%, subculturing was performed for subsequent experiments.
Cytotoxicity assay. The cytotoxicity of the peptides was evaluated using the MTT assay [29]. […] After incubation at 37 °C for 4 h, the supernatant was carefully removed, and 150 μL of DMSO was added to dissolve the formazan crystals. The plate was shaken for 10 min, and the absorbance was measured at 490 nm using a microplate reader.
For series [7], the system named is endothelial cells. The note with it: 48 h of treatment; 129% in the Ang II group; cited from earlier work. An excerpt: All three concentrations produced highly similar su ...
For series [8], the system named is endothelial cells. Also noted: method as in PMID 37501259. The note with it: Ang II-treated endothelial cells, cited from earlier work.

No end group written: not given here.

As to `C[C@H](CS)C(=O)N1CCC[C@H]1C(=O)O` [captopril], the Migration rate in the series with EA.hy926 cells [1] (6 h, Ang II alone 42.44) is reported as 25.77 ± 2.49%; in the series with EA.hy926 cells [1] (24 h, Ang II alone 89.68), 57.52 ± 1.92%. In the series with EA.hy926 cells [2], this molecule displayed an NO level of 97.86 ± 4.47 μmol/g prot. This molecule displayed an ET-1 content in the series on EA.hy926 cells [3] of 12.70 ± 0.48 pg/mg prot. Further, the GSH-Px improvement with EA.hy926 cells [4] came to 38.8%. In the series with EA.hy926 cells [5], this molecule displayed an SOD improvement of 70.9%.

For PYPDWSFAK [PYPDWSFAK], the “Cytotoxicity” value in the series with EA.hy926 cells [6] is given as “non-cytotoxic”.

Turning to SPIH [soybean protein-derived peptide], the Endothelial wound healing in the series with endothelial cells [7] is 92%. The NO content with endothelial cells [8] (31.4 ± 0.7 before) was 43.7 ± 0.1 µmol/L. The NO increase with endothelial cells [8] was 39.3%.
